# Results: patent US11760722B2 (priority 2022, dated 2023)
# System: SARS-CoV-2 Delta USA/MD-HP05647/2021 (Lineage B.1.617.2)
# Test: microbe, parasite or virus in culture
# Assay type: cell-based
# Settings: Severe acute respiratory syndrome coronavirus 2, Vero C1008, 4 h; read-out: Vero E6 Delta CPE/EC50
structure (smiles),measurement,value
CCCc1ccc(S(=O)(=O)N[C@H](C(=O)N2C[C@H]3[C@@H]([C@H]2C(=O)N[C@H](C#N)C[C@@H]2CCNC2=O)C3(C)C)C(C)(C)C)s1 [Compound 171],EC50,0.0808 µM
